In patent US8841257B2, “Inhibitors of STAT3 and uses thereof” (Board of Regents, The University of Texas System, priority 2009, dated 2014):
“Also recorded” adds a separate entry of the source.

Columns and labels:
[1] = system: SUM149 inflammatory breast tumor cells; test: Anchorage-independent growth in soft agar, SUM149; type: cell-based; details: 28 days
Procedure: (§1) Assay for anchorage-independent growth in soft agar Cells (5×10^5) were suspended in 1× DMEM/HEPES, 10% heat-inactivated FBS, 0.13% bicarbonate, and 0.33% BBL agar. The cells were plated on 1% base agar plates (60 mm) containing 1× DMEM/HEPES, 10% heat-inactivated FBS, and 1% BBL agar. Fresh serum-containing medium was fed to the cells on 3-day intervals. The dishes were then incubated at 37° C. with 5% CO2 for 28 days. The colonies that grew in soft agar were photographed and counted. Data are expressed as the number of colonies formed per plate±S.E.M. and three plates were counted per cell line.

[2] = system: MDA7, MDA-MB-231, SUM149, and SUM190; test: Anchorage-independent growth in soft agar, four breast tumor models; type: cell-based; details: MDA7, MDA-MB-231, SUM149, SUM190; 28 days
Procedure: as §1

[3] = system: SUM149 and MDA-MB-231 cells; test: In vitro invasion of an artificial basement membrane; type: cell-based, human; details: 5 μM in DMSO; 72 hours
Procedure: Effect of prodrugs on in vitro invasion of an artificial basement membrane by human breast cancer cells. SUM149 and MDA-MB-231 cells were trypsinized, resuspended in serum-supplemented medium, and counted. Cells were then washed 3 times with serum-free medium. Plates (6-well) compatible with transwell inserts with 8 μm pore-size polycarbonate filters (Fisher Scientific) were coated with Matrigel in cold serum-free DMEM/F12 at a final concentration of 0.7 mg/mL and held at room temperature for 40 minutes. Cells (in 500 μL serum-free medium) were added into the transwell inserts and incubated for 72 hours in the absence or presence 5 μM prodrug in DMSO (1% by volume). For a control, 10% FBS was used to evaluate the baseline extent of invasion of the different cell lines. After incubation, noninvading cells on the upper surface of the filter were removed with cotton swabs. Cells that had passed through the pores onto the lower side of the filter were fixed, stained with Hema-3 stain (Fisher Scientific), and quantified. The experiments were performed in triplicate and were repeated twice.

STAT3 [4] = target: T1, STAT3 (Homo sapiens, UniProt P40763); test: Inhibition of STAT3 phosphorylation in BT20 breast tumor cells (western blot); type: cell-based; parameters: endogenous in cells; host or cells: BT20 breast tumor cells; details: BT20 time course
T1 sequence (P40763 whole entry): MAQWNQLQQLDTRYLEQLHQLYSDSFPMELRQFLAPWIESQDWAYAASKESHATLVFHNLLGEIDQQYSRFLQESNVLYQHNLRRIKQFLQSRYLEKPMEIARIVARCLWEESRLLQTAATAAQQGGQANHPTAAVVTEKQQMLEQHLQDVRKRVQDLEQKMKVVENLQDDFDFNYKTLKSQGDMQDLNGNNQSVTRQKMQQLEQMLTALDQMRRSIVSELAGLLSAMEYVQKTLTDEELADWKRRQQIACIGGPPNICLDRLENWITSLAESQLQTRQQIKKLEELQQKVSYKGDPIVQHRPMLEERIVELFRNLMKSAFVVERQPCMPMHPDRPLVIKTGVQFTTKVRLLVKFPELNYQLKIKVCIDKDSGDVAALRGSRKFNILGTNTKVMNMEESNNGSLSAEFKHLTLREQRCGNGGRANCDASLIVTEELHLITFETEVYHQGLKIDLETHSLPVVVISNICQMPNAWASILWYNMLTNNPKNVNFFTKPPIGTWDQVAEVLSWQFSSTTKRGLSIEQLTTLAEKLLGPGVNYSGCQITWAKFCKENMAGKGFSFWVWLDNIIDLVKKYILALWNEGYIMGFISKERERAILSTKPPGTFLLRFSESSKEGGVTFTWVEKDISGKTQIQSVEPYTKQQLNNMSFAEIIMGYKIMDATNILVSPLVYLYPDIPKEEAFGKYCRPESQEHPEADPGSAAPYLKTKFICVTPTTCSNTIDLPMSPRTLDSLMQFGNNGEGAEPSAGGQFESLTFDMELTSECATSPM
Procedure: Inhibition of STAT3 in BT20 Breast Tumor Cells. General procedure: 35 mm petri dishes were plated with 300,000 BT20 cells in 2 mL RPMI1640 media containing 10% FBS, […], streptomycin, and glutamine. Prodrugs were dissolved in DMSO and were added to the cells with fresh media at varying concentrations. After 2 h the cells were washed with ice cold phosphate buffered saline. Washed cells were treated with lysis buffer (50 mM Hepes, pH 7.4, 150 mM NaCl, 1.5 mM MgCl2, 1 mM EGTA, 100 mM NaF, 10 mM sodium pyrophosphate, 10% glycerol, 1% Triton X-100, 1 mM PMSF, 1 mM Na3VO4, 10 μg/mL leupeptin and 10 μg/mL aprotinin). Cell-free detergent extracts were centrifuged at 15,000 rpm in a microcentriguge for 30 min at 4° C. and the protein concentrations of the supernatants determined. Aliquots containing 12 μg of protein were separated on 8% SDS-PAGE and were transferred to PVDF filters. The filters were blocked with 5% bovine serum albumin and were probed with pStat3^Y705 antibody followed by secondary antibody, whose signal was detected with an enhanced chemiluminescence kit (ECL, Amersham, Chicago, Ill.). Filters were stripped with stripping buffer (62.5 mM Tris, pH 6.8, 2% SDS, and 0.1 M 2-mercaptoethanol) at 50° C. for 30 min. Filters were then probed with total Stat3 antibody and visualized with chemiluminescence as above.
Because DMSO is toxic, other formulations were evaluated for potential use in animal models. The compound of Example 1 was dissolved in EtOH, 20% (w/v) Trappsol (hydroxypropyl β-cyclodextran, pharmaceutical grade), or a liposomal formulation to a concentration of 5 mM. These formulations were given to cells at 0.1, 0.5, and 5 μM concentrations. At two hours, cells were lysed and pSTAT3 levels were determined by Western Blot (FIG. 3). Different formulations have little effect on inhibition of STAT3. The compound of Example 1 was dissolved in DMSO, EtOH, Trappsol, or as a 10 mol % mixture in dimyristoylphosphatidyl choline and applied to BT20 cell in culture. After two hours, cells were lysed and pSTAT3 levels determined by Western blot. To prepare liposomes a solution of 1.0 mg of the compound of Example 1, 7.2 mg of DMPC, 0.41 mg of Tween 20 in 1.0 mL of tert-butanol was lyophilized. A control lipid formulation of 7.2 mg of DMPC and 0.41 mg of Tween 20 in 1.0 mL of tert-butanol was lyophilized. These samples were mixed with 236 μL of H2O and were vortexed and sonicated for 5 min.
The compounds are selective for STAT3 over STAT1 in BT20 breast tumor cells. BT20 cells prepared as above and were treated with 5 μM of the compound of Example 1 for two hours then were treated with 25 ng/mL of interferon γ (IFNγ). […] (FIG. 4, bottom panel).
Time course of inhibition of STAT3 phosphorylation in BT20 cells. BT20 cells were plated as above and treated with the compounds from Examples 1 and 6 and western blots were performed at varying time intervals.

STAT5 = test: EGF-stimulated STAT5 phosphorylation in MDA-MB-468 cells; type: cell-based, human; details: 1.5 hr prodrug, then EGF 100 ng/mL 30 min
Procedure: (§2) Effect of prodrug on the phosphorylation of STAT3, STAT5 and Akt in response to Epidermal Growth Factor stimulation. MDA-MB-468 cells were prepared as above. Prodrugs were prepared as 10 mM stock solutions in DMSO and aliquots were added to the culture media to give the correct final concentrations. After 1.5 hr EGF was added at 100 ng/mL. After 30 minutes cells were collected and lysed and proteins were separated by PAGE and transferred to three PVDF filters as above. The first filter was blocked with 5% bovine serum albumin and probed for total and phosphoStat3 as above. The second filter was probed for phosphoSer473Akt and total Akt using appropriate antibodies and similar detection procedures to those used for STAT3. The third filter was probed for phosphoTyr699 Stat5 and total STAT5 using appropriate antibodies and similar detection procedures to those used for STAT3.

Akt = test: EGF-stimulated Akt Ser473 phosphorylation in MDA-MB-468 cells; type: cell-based, human; details: 1.5 hr prodrug, then EGF 100 ng/mL 30 min
Procedure: as §2

[5] = system: Focal Adhesion Kinase (FAK); test: Phosphorylation of Focal Adhesion Kinase Tyr861 in MDA-MB-468 cells; type: cell-based, human; details: 2 hr treatment
Excerpt: Effect of Prodrug on the phosphorylation of Focal Adhesion Kinase (FAK) in MDA-MB-468 breast tumor cells. MDA-MB-468 cells express constitutive phosphorylation of Tyr861 of FAK (Laird, A. et al., Src Family Kinase Activity is Required For Signal Tranducer and Activator of Transcription 3 and Focal Adhesion Kinase Phosphorylation and Vascular Endothelial Growth Factor Signaling In Vivo and For Anchorage-Dependent and Independent Growth Of Human Tumor Cells, Mol Cancer Ther, 2, 461-9(2003). a unique substrate of Src upon recruitment via its SH2 domain (Calalb, M. B., et al, S. K. Focal adhesion kinase tyrosine-861 is a major site of phosphorylation by Src. Biochem Biophys Res Commun 1996, 228, 662-8 (1996.) To test for cross reactivity to the Src SH2 domain, MDA-MB-468 cell extracts were probed for phosphorylation of Tyr861 of FAK.

STAT3 [6] = target: T1, STAT3; test: Inhibition of Stat3 tyrosine705 phosphorylation in MDA-MB-468 cells; type: cell-based; parameters: host or cells: MDA-MB-468 breast tumor cells; details: 2 h
Procedure: Inhibition of Stat3 tyrosine705 phosphorylation in MDA-MB-468 cells. MDA-MB-468 breast tumor cells (0.4×10^6) were plated onto 35 mm culture dishes and were allowed to grow overnight. Prodrugs were prepared as 10 mM stock solutions in DMSO and aliquots were added to the culture media to give the correct final concentrations. After 2 h the cells were washed with ice cold phosphate buffered saline. Washed cells were treated with lysis buffer (50 mM Hepes, pH 7.4, 150 mM NaCl, 1.5 mM MgCl2, 1 mM EGTA, 100 mM NaF, 10 mM sodium pyrophosphate, 10% glycerol, 1% Triton X-100, 1 mM PMSF, 1 mM Na3VO4, 10 μg/mL leupeptin and 10 μg/mL aprotinin). Cell-free detergent extracts were centrifuged at 15,000 rpm in a microcentriguge for 30 min at 4° C. and the protein concentrations of the supernatants determined. Aliquots containing 12 μg of protein were separated on 8% SDS-PAGE and were transferred to PVDF filters. The filters were blocked with 5% bovine serum albumin and were probed with pStat3^Y705 antibody followed by secondary antibody, whose signal was detected with an enhanced chemiluminescence kit (ECL, Amersham, Chicago, Ill.). Filters were stripped with stripping buffer (62.5 mM Tris, pH 6.8, 2% SDS, and 0.1 M 2-mercaptoethanol) at 50° C. for 30 min. Filters were then probed with total Stat3 antibody and visualized with chemiluminescence as above.

STAT3 [7] = target: T1, STAT3; test: EGF-stimulated STAT3 phosphorylation in MDA-MB-468 cells; type: cell-based; parameters: host or cells: MDA-MB-468 breast tumor cells; details: 1.5 hr prodrug, then EGF 100 ng/mL 30 min
Procedure: as §2

STAT1 = target: T2, STAT1 (Homo sapiens, UniProt P42224); test: IFNγ-stimulated STAT1 phosphorylation in MDA-MB-468 cells; type: cell-based; parameters: host or cells: MDA-MB-468 breast tumor cells
T2 sequence (P42224 1-750): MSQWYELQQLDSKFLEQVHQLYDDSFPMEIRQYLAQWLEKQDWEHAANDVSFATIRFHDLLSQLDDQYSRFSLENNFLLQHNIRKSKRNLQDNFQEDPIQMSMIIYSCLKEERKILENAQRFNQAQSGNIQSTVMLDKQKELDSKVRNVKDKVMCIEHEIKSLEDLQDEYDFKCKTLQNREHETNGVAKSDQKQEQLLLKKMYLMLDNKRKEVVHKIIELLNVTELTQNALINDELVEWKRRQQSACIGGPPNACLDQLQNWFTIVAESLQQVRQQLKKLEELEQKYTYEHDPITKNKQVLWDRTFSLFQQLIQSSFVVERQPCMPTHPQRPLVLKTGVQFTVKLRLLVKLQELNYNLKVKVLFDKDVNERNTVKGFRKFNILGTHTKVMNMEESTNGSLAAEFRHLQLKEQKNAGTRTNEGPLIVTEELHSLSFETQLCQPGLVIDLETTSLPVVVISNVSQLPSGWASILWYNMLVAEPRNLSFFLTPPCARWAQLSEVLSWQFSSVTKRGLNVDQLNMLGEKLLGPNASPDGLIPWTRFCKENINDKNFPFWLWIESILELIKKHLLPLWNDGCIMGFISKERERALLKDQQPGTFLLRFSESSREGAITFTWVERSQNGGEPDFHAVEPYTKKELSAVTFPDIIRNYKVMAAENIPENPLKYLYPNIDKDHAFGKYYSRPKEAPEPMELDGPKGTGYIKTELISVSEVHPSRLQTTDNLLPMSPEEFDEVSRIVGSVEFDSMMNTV
Procedure: Effect of Prodrug on the phosphorylation of STAT1 in MDA-MB-468 breast tumor cells. MDA-MB-468 cells were prepared as above. Prodrugs were prepared as 10 mM stock solutions in DMSO and aliquots were added to the culture media to give the correct final concentrations. After 1.5 hr interferonγ was added at 25 ng/mL. After 30 minutes cells were collected and lysed and proteins were separated by PAGE and transferred to PVDF filters as above. Filters were probed for phosphoTyr701 Stat 1 and total Stat1 using appropriate antibodies and similar detection procedures to those used for Stat3.

Row | concentration as low as which partial inhibition of STAT3 phosphorylation was seen (STAT3 [6]) [nM] | concentration at which complete inhibition of STAT3 phosphorylation occurred (STAT3 [6]) [nM] | EGF-induced increase in Stat3 phosphorylation (STAT3 [7]) | inhibition of Stat1 phosphorylation compared with Stat3 phosphorylation (STAT1; 1.5 hr prodrug, then interferonγ 25 ng/mL 30 min) | fold less potent at inhibiting STAT1 than STAT3 (STAT1; MDA-MB-468 cells) | Structure (SMILES) | colony formation in soft agar [1] | colony formation in soft agar, four breast tumor models [2] | invasion through the artificial basement membrane [3] | effectiveness of phosphate (X=O) relative to difluoromethyl phosphonate Example 1 (X=CF2) (STAT3 [4]) | Stat5 phosphorylation after EGF (STAT5) | Akt Ser473 phosphorylation after EGF (Akt) | phosphorylation of FAK Tyr861 [5] | inhibition of Tyr705 phosphorylation of Stat3 (potency in words) (STAT3 [6]; prodrug in DMSO)
1 |  |  |  |  |  | C/C(=C\C(=O)N[C@H]1CCc2cccc3c2N(C1=O)[C@H](C(=O)N[C@H](C)CCC(N)=O)C3)c1ccc(C(F)(F)P(=O)(Oc2ccccc2)Oc2ccccc2)cc1 [Example 8, (E)-3-[4-[(Diphenoxyphosphinyl)difluoromethyl]phenyl]-but-2-enoyl-Haic-(R)-4-aminopentamide] | inhibition of colony formation | inhibition | inhibited invasion | as effective as |  |  |  | 
2 | 10 | 500 | effective at inhibiting | less effective | about 10 fold | CCCC[C@H](NC(=O)/C=C(\C)c1ccc(C(F)(F)P(=O)(OCOC(=O)C(C)(C)C)OCOC(=O)C(C)(C)C)cc1)C(=O)N1C[C@H]2CC2[C@H]1C(=O)N[C@H](C)CCC(N)=O (stereo partly drawn) [Example 18, (2E)-3-[4-[[bis[(2,2-dimethyl-1-oxopropoxy)methoxy]phosphinyl]difluoromethyl]phenyl]-but-2-enoyl-norleucinyl-(2S,3R,4S)-methanoprolinyl-(R)-4-aminopentamide] |  |  |  |  | no effect | no effect | no reduction; also recorded: do not inhibit | very potent inhibitors; also recorded: inhibit phosphorylation of STAT3
